Results: EP3345917A1, “ANTIPROTOZOAL COMPOUNDS” (Bacoba AG, priority 2017, dated 2018)
Non-standard residues stand in square brackets, D forms with d. Residues, ends and D or L forms follow the SMILES beside them. *: point of attachment. Dansyl = CN(C)c1cccc2c(S(=O)(=O)*)cccc12; NH((S)CH(Me)CH2NMe2) = C[C@@H](CN(C)C)N*; NH(2-morpholinoethyl) = C(CN1CCOCC1)N*; dGly(nOct) = CCCCCCCC[C@@H](N)C(=O)O; Gly(octyl) = CCCCCCCC[C@H](N)C(=O)O; Hexanoyl = CCCCCC(=O)*; X13 = O=C(CCN1CCOCC1)*; Aib = CC(C)(N)C(=O)O; X6 = CCCN(CCC)CCN*; Ms = CS(=O)(=O)*; βAla = NCCC(=O)O

Legend:
[1] = system: Axenically grown Leishmania donovani amastigotes (strain MHOM/ET/67/L82); assay: Axenic Leishmania donovani amastigote resazurin assay; type: cell-based; settings: In vitro inhibition, read-out: L.don. ax
How it was run: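 IC50 values derive from resazurin fluorescence (ex 536 nm, em 588 nm), expressed relative to the negative control, after 2-4 hours of plate development. Axenic amastigotes of strain MHOM/ET/67/L82 were used; each test run in triplicate.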

Plasmodium falciparum = assay: 3H-hypoxanthine incorporation assay against Plasmodium falciparum; type: cell-based; settings: In vitro inhibition, read-out: P.falc NF5
Method: (§1) Tests were done in triplicate.
IC50 values were calculated by linear interpolation.

[2] = system: Trypanosoma brucei rhodesiense (STIB 900 strain); assay: Alamar Blue assay against Trypanosoma brucei rhodesiense grown in axenic medium; type: cell-based; settings: In vitro inhibition, read-out: T.b.rhod.
How it was run: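 Alamar Blue-based IC50 determination, in triplicate, on axenically grown STIB 900 trypanosomes. Melarsoprol included as reference.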

[3] = Cytotoxicity assay on L6-cells (Alamar Blue); settings: rat, Cytotox L6, Cytotoxicity against rat myoblast cells (L6)
[4] = system: Trypanosoma cruzi trypomastigote forms (Tulahuen strain); assay: Intracellular Trypanosoma cruzi assay in L6-cells, beta-galactosidase/CPRG readout; type: cell-based; settings: In vitro inhibition, read-out: T.cruzi.
How it was run: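 Readout was β-galactosidase cleavage of CPRG, read photometrically at 540 nm after 2–6 h colour development, giving IC50 values. Parasites: LacZ-expressing Tulahuen C2C4 strain grown in rat L6 myoblasts; run in triplicate.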

[5] = system: intracellular Leishmania donovani (L.don. InMac); assay: Intracellular Leishmania donovani assay (L.don. InMac); type: cell-based; settings: In vitro inhibition
Description: as §1

Row | SMILES | IC50 [1] [nM] | IC50 (Plasmodium falciparum) [nM] | IC50 [2] [nM] | IC50 at 70 h [3] [nM] | IC50 [4] [nM] | IC50 [5] [nM]
1 | CCCCCCCC[C@@H](NC(=O)[C@H]1CCCN1C(=O)CCCCC)C(=O)N[C@H](CC(C)C)C(=O)NC(C)(C)C(=O)N[C@@H](CC(C)C)C(=O)N[C@@H](CC(C)C)C(=O)NC(C)(C)C(=O)NC(C)(C)C(=O)NCCC(=O)N[C@@H](C)CN(C)C [Compound 5851, (2R)-N-[(1R)-1-[(1-{[(1S)-1-{[(1S)-1-{[1-({1-[(2-{[(2S)-1-(dimethylamino)propan-2-yl]carbamoyl}ethyl)carbamoyl]-1-methylethyl}carbamoyl)-1-methylethyl]carbamoyl}-3-methylbutyl]carbamoyl}-3-methylbutyl]carbamoyl}-1-methylethyl)carbamoyl]-3-methylbutyl]-2-{[(2R)-1-hexanoylpyrrolidin-2-yl]formamido}decanamide] (Hexanoyl-[dP][dGly(nOct)][dL][Aib]LL[Aib][Aib][βAla]-{NH((S)CH(Me)CH2NMe2)}) | 144 | 51.7 | 165 | 1210 | 1130 | 241
2 | CCCCCCCC[C@H](NC(=O)[C@@H]1CCCN1C(=O)CCN1CCOCC1)C(=O)N[C@@H](CC(C)C)C(=O)NC(C)(C)C(=O)N[C@@H](CC(C)C)C(=O)N[C@@H](CC(C)C)C(=O)NC(C)(C)C(=O)NC(C)(C)C(=O)NCCC(=O)N[C@@H](C)CN(C)C [Compound 5650, (2S)-N-[(1S)-1-[(1-{[(1S)-1-{[(1S)-1-{[1-({1-[(2-{[(2S)-1-(dimethylamino)propan-2-yl]carbamoyl}ethyl)carbamoyl]-1-methylethyl}carbamoyl)-1-methylethyl]carbamoyl}-3-methylbutyl]carbamoyl}-3-methylbutyl]carbamoyl}-1-methylethyl)carbamoyl]-3-methylbutyl]-2-{[(2S)-1-[3-(morpholin-4-yl)propanoyl]pyrrolidin-2-yl]formamido}decanamide] (X13-P[Gly(octyl)]L[Aib]LL[Aib][Aib][βAla]-{NH((S)CH(Me)CH2NMe2)}) | 105 | 11.1 | 15.3 | 492 | 133 | 188
3 | CCCCCCCC[C@H](NC(=O)[C@@H]1CCCN1C(=O)CCCCC)C(=O)N[C@@H](CC(C)C)C(=O)NC(C)(C)C(=O)N[C@@H](CC(C)C)C(=O)N[C@@H](CC(C)C)C(=O)NC(C)(C)C(=O)NC(C)(C)C(=O)NCCC(=O)NCCN(CCC)CCC [Compound 5888, (2S)-N-[(1S)-1-[(1-{[(1S)-1-{[(1S)-1-{[1-({1-[(2-{[2-(dipropylamino)ethyl]carbamoyl}ethyl)carbamoyl]-1-methylethyl}carbamoyl)-1-methylethyl]carbamoyl}-3-methylbutyl]carbamoyl}-3-methylbutyl]carbamoyl}-1-methylethyl)carbamoyl]-3-methylbutyl]-2-{[(2S)-1-hexanoylpyrrolidin-2-yl]formamido}decanamide] (Hexanoyl-P[Gly(octyl)]L[Aib]LL[Aib][Aib][βAla]-X6) | 22700 | 35900 | 18000 | 446 | 37.5 | 14.8
4 | CCCCCCCC[C@H](NC(=O)[C@@H]1CCCN1S(C)(=O)=O)C(=O)N[C@@H](CC(C)C)C(=O)NC(C)(C)C(=O)N[C@@H](CC(C)C)C(=O)N[C@@H](CC(C)C)C(=O)NC(C)(C)C(=O)NC(C)(C)C(=O)NCCC(=O)N[C@@H](C)CN(C)C [Compound 5652, (2S)-N-[(1S)-1-[(1-{[(1S)-1-{[(1S)-1-{[1-({1-[(2-{[(2S)-1-(dimethylamino)propan-2-yl]carbamoyl}ethyl)carbamoyl]-1-methylethyl}carbamoyl)-1-methylethyl]carbamoyl}-3-methylbutyl]carbamoyl}-3-methylbutyl]carbamoyl}-1-methylethyl)carbamoyl]-3-methylbutyl]-2-{[(2S)-1-methanesulfonylpyrrolidin-2-yl]formamido}decanamide] (Ms-P[Gly(octyl)]L[Aib]LL[Aib][Aib][βAla]-{NH((S)CH(Me)CH2NMe2)}) | 8.1 | 4.6 | 4 | 1410 | 436 | 166
5 | CCCCCCCC[C@H](NC(=O)[C@@H]1CCCN1C(=O)CCCCC)C(=O)N[C@@H](CC(C)C)C(=O)NC(C)(C)C(=O)N[C@@H](CC(C)C)C(=O)N[C@@H](CC(C)C)C(=O)NC(C)(C)C(=O)NC(C)(C)C(=O)NCCC(=O)NCCN1CCOCC1 [Compound 5646, (2S)-2-{[(2S)-1-hexanoylpyrrolidin-2-yl]formamido}-N-[(1S)-3-methyl-1-[(1-methyl-1-{[(1S)-3-methyl-1-{[(1S)-3-methyl-1-{[1-methyl-1-({1-methyl-1-[(2-{[2-(morpholin-4-yl)ethyl]carbamoyl}ethyl)carbamoyl]ethyl}carbamoyl)ethyl]carbamoyl}butyl]carbamoyl}butyl]carbamoyl}ethyl)carbamoyl]butyl]decanamide] (Hexanoyl-P[Gly(octyl)]L[Aib]LL[Aib][Aib][βAla]-{NH(2-morpholinoethyl)}) | 1.6 | 22.4 | 212 | 1460 | 392 | 99.5
6 | CCCCCCCC[C@H](NC(=O)[C@@H]1CCCN1C(=O)CCCCC)C(=O)N[C@H](C(=O)NC(C)(C)C(=O)N[C@@H](CC(C)C)C(=O)N[C@@H](CC(C)C)C(=O)NC(C)(C)C(=O)NC(C)(C)C(=O)NCCC(=O)N[C@@H](C)CN(C)C)[C@@H](C)O [Compound 5604, (2S)-N-[(1S,2R)-1-[(1-{[(1S)-1-{[(1S)-1-{[1-({1-[(2-{[(2S)-1-(dimethylamino)propan-2-yl]carbamoyl}ethyl)carbamoyl]-1-methylethyl}carbamoyl)-1-methylethyl]carbamoyl}-3-methylbutyl]carbamoyl}-3-methylbutyl]carbamoyl}-1-methylethyl)carbamoyl]-2-hydroxypropyl]-2-{[(2S)-1-hexanoylpyrrolidin-2-yl]formamido}decanamide] (Hexanoyl-P[Gly(octyl)]T[Aib]LL[Aib][Aib][βAla]-{NH((S)CH(Me)CH2NMe2)}) | 4 | 3.6 | 0.8 | 1290 | 426 | 228
7 | CCCCCCCC[C@H](NC(=O)[C@@H]1CCCN1S(=O)(=O)c1cccc2c(N(C)C)cccc12)C(=O)N[C@@H](CC(C)C)C(=O)NC(C)(C)C(=O)N[C@@H](CC(C)C)C(=O)N[C@@H](CC(C)C)C(=O)NC(C)(C)C(=O)NC(C)(C)C(=O)NCCC(=O)N[C@@H](C)CN(C)C [Compound 5765, (2S)-2-{[(2S)-1-{[5-(dimethylamino)naphthalen-1-yl]sulfonyl}pyrrolidin-2-yl]formamido}-N-[(1S)-1-[(1-{[(1S)-1-{[(1S)-1-{[1-({1-[(2-{[(2S)-1-(dimethylamino)propan-2-yl]carbamoyl}ethyl)carbamoyl]-1-methylethyl}carbamoyl)-1-methylethyl]carbamoyl}-3-methylbutyl]carbamoyl}-3-methylbutyl]carbamoyl}-1-methylethyl)carbamoyl]-3-methylbutyl]decanamide] (Dansyl-P[Gly(octyl)]L[Aib]LL[Aib][Aib][βAla]-{NH((S)CH(Me)CH2NMe2)}) | 4.3 | 1 | 1.6 | 250 | 126 | 203
8 | CCCCCCCC[C@H](NC(=O)[C@@H]1CCCN1C(=O)CCCCC)C(=O)N[C@@H](CC(C)C)C(=O)NC(C)(C)C(=O)N[C@H](CC(C)C)C(=O)N[C@H](CC(C)C)C(=O)NC(C)(C)C(=O)NC(C)(C)C(=O)NCCC(=O)N[C@@H](C)CN(C)C [Compound 5850, (2S)-N-[(1S)-1-[(1-{[(1R)-1-{[(1R)-1-{[1-({1-[(2-{[(2S)-1-(dimethylamino)propan-2-yl]carbamoyl}ethyl)carbamoyl]-1-methylethyl}carbamoyl)-1-methylethyl]carbamoyl}-3-methylbutyl]carbamoyl}-3-methylbutyl]carbamoyl}-1-methylethyl)carbamoyl]-3-methylbutyl]-2-{[(2S)-1-hexanoylpyrrolidin-2-yl]formamido}decanamide] (Hexanoyl-P[Gly(octyl)]L[Aib][dL][dL][Aib][Aib][βAla]-{NH((S)CH(Me)CH2NMe2)}) | 8.8 | 0.9 | 18.5 | 820 | 319 | 71.5
9 | CCCCCCCC[C@@H](NC(=O)[C@H]1CCCN1C(=O)CCCCC)C(=O)N[C@H](CC(C)C)C(=O)NC(C)(C)C(=O)N[C@H](CC(C)C)C(=O)N[C@H](CC(C)C)C(=O)NC(C)(C)C(=O)NC(C)(C)C(=O)NCCC(=O)N[C@@H](C)CN(C)C [Compound 5849, (2R)-N-[(1R)-1-[(1-{[(1R)-1-{[(1R)-1-{[1-({1-[(2-{[(2S)-1-(dimethylamino)propan-2-yl]carbamoyl}ethyl)carbamoyl]-1-methylethyl}carbamoyl)-1-methylethyl]carbamoyl}-3-methylbutyl]carbamoyl}-3-methylbutyl]carbamoyl}-1-methylethyl)carbamoyl]-3-methylbutyl]-2-{[(2R)-1-hexanoylpyrrolidin-2-yl]formamido}decanamide] (Hexanoyl-[dP][dGly(nOct)][dL][Aib][dL][dL][Aib][Aib][βAla]-{NH((S)CH(Me)CH2NMe2)}) | 3.5 | 7.5 | 55.6 | 1070 | 257 | 67.1
